# Data taken from US20250100968A1, “BICYCLIC-HETEROCYCLE DERIVATIVES AND RELATED USES” (CENTESSA PHARMACEUTICALS (UK) LIMITED, priority 2022, published 2025).
# Molecular target: T1, human orexin type 2 receptor (hOX2R) (Homo sapiens, UniProt O43614)
# T1 sequence (O43614 1-444): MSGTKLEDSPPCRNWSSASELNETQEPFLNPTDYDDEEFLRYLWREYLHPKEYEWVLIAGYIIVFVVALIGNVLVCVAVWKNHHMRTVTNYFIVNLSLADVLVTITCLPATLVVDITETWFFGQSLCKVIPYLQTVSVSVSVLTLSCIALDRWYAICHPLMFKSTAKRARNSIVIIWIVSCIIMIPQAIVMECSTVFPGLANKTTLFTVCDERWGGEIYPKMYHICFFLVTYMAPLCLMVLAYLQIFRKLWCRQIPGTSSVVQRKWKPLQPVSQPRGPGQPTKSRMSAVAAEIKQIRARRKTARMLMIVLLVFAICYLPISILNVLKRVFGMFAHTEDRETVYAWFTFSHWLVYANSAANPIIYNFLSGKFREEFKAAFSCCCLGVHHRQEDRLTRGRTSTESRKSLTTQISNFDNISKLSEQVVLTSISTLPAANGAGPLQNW
# Experiment: cell-based
# Description: Measurement of orexin type 2 receptor agonist activity. […] After removal of the medium, 50 μl of assay buffer 1 (0.1% bovine serum albumin (Sigma Aldrich), 20 mM HEPES (Molecular Dimensions), 250 mM probenecid (Sigma Aldrich), 1× Calcium 5 dye (Molecular Devices) in Hank's balanced salt solution (Invitrogen)) was added, and the cells were incubated for 60 min under the conditions of 37° C., 5% CO2. A test compound was dissolved in dimethyl sulfoxide (Sigma Aldrich) to 10 mM, and then diluted with assay buffer 2 (20 mM HEPES, Hank's balanced salt solution, 0.1% bovine serum albumin). For the reaction, a test compound solution (10 μl) was added using Fluorescent Imaging Plate Reader TETRA (FLIPR TETRA: manufactured by Molecular Devices), a fluorescence value (excitation wavelength 488 nm, measurement wavelength 570 nm) of each well was measured every one second for 2 min, and the agonist activity was determined using the area of the fluorescence value as an indicator of intracellular Ca^2+ concentration. The agonist activity of the test compound was calculated assuming that the fluorescence value of the well added with only the dilution buffer was 0% and the fluorescence value of the well added with 10 nM human orexin A (Tocris) buffer was 100%.
# 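Also: agonist activity in CHO cells stably expressing hOX2R, intracellular Ca2+ via Calcium 5 dye fluorescence area over 2 min, buffer-only as 0% and 10 nM orexin A as 100%.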
row,EC50 [nM],Compound
1,0.0631 to 1,"O=C(C(O)CF)N1CC2(CC2)[C@H](NS(=O)(=O)C(F)F)[C@@H]1Cc1cccc(-c2cccc(F)c2)c1F (mixture of isomers) [compound 29, N-((6S,7S)-6-((2,3′-difluoro-[1,1′-biphenyl]-3-yl)methyl)-5-((RS)-3-fluoro-2-hydroxypropanoyl)-5-azaspiro[2.4]heptan-7-yl)-1,1-difluoromethanesulfonamide]"
2,1 to 10,"C[C@@H](F)S(=O)(=O)N[C@@H]1[C@H](Cc2cccc(-c3cc(F)cc(F)c3)c2F)N(C(=O)C2CCO2)CC12CC2 (mixture of isomers) [compound 43, (S)-1-fluoro-N-((6S,7S)-5-((RS)-oxetane-2-carbonyl)-6-((2,3′,5′-trifluoro-[1,1′-biphenyl]-3-yl)methyl)-5-azaspiro[2.4]heptan-7-yl)ethane-1-sulfonamide]"
3,1 to 10,"C[C@@](O)(CF)C(=O)N1CC2(CC2)[C@H](NS(=O)(=O)C(F)F)[C@@H]1Cc1cccc(-c2cc(F)cc(F)c2)c1F [compound 1, 1,1-difluoro-N-((6S,7S)-5-((S)-3-fluoro-2-hydroxy-2-methylpropanoyl)-6-((2,3′,5′-trifluoro-[1,1′-biphenyl]-3-yl)methyl)-5-azaspiro[2.4]heptan-7-yl)methanesulfonamide]"
4,10 to 100,"C[C@@](O)(C(=O)N1CC2(CC2)[C@H](NS(=O)(=O)CF)[C@@H]1Cc1cccc(-c2ccccc2)c1F)C1CC1 [compound 2, N-((6S,7S)-5-((S)-2-cyclopropyl-2-hydroxypropanoyl)-6-((2-fluoro-[1,1′-biphenyl]-3-yl)methyl)-5-azaspiro[2.4]heptan-7-yl)-1-fluoromethanesulfonamide]"
5,10 to 100,"O=C([C@@H](O)C1CC1)N1CC2(CC2)[C@H](NS(=O)(=O)CF)[C@@H]1Cc1cccc(-c2cc(F)cc(F)c2)c1F [compound 3, N-((6S,7S)-5-((S)-2-cyclopropyl-2-hydroxyacetyl)-6-((2,3′,5′-trifluoro-[1,1′-biphenyl]-3-yl)methyl)-5-azaspiro[2.4]heptan-7-yl)-1-fluoromethanesulfonamide]"
6,1 to 10,"C[C@@H](NC(=O)N1CC2(CC2)[C@H](NS(=O)(=O)CF)[C@@H]1Cc1cccc(-c2cc(F)cc(F)c2)c1F)C(F)F [compound 4, (6S,7S)-N-((R)-1,1-difluoropropan-2-yl)-7-((fluoromethyl)sulfonamido)-6-((2,3′,5′-trifluoro-[1,1′-biphenyl]-3-yl)methyl)-5-azaspiro[2.4]heptane-5-carboxamide]"
7,0.0631 to 1,"N#CC1(C(=O)N2CC3(CC3)[C@H](NS(=O)(=O)CF)[C@@H]2Cc2cccc(-c3ccccc3)c2F)CC1 [compound 5, N-((6S,7S)-5-(1-cyanocyclopropane-1-carbonyl)-6-((2-fluoro-[1,1′-biphenyl]-3-yl)methyl)-5-azaspiro[2.4]heptan-7-yl)-1-fluoromethanesulfonamide]"
8,0.0631 to 1,"C[C@](O)(C(=O)N1CC2(CC2)[C@H](NS(=O)(=O)CF)[C@@H]1Cc1cccc(-c2cccc(F)c2)c1F)C(F)F [compound 6, N-((6S,7S)-5-((S)-3,3-difluoro-2-hydroxy-2-methylpropanoyl)-6-((2,3′-difluoro-[1,1′-biphenyl]-3-yl)methyl)-5-azaspiro[2.4]heptan-7-yl)-1-fluoromethanesulfonamide]"
9,1 to 10,"O=C([C@H](O)CF)N1CC2(CC2)[C@H](NS(=O)(=O)C(F)F)[C@@H]1Cc1cccc(-c2cc(F)cc(F)c2)c1F [compound 8, 1,1-difluoro-N-((6S,7S)-5-((S)-3-fluoro-2-hydroxypropanoyl)-6-((2,3′,5′-trifluoro-[1,1′-biphenyl]-3-yl)methyl)-5-azaspiro[2.4]heptan-7-yl)methanesulfonamide]"
10,0.0631 to 1,"O=C([C@H]1CCO1)N1CC2(CC2)[C@H](NS(=O)(=O)C2(F)CC2)[C@@H]1Cc1cccc(-c2ccccc2)c1F [compound 10, 1-fluoro-N-((6S,7S)-6-((2-fluoro-[1,1′-biphenyl]-3-yl)methyl)-5-((R)-oxetane-2-carbonyl)-5-azaspiro[2.4]heptan-7-yl)cyclopropane-1-sulfonamide]"
11,0.0631 to 1,"N#CC1(C(=O)N2CC3(CC3)[C@H](NS(=O)(=O)CF)[C@@H]2Cc2cc(F)cc(-c3ccccc3)c2F)CCC1 [compound 13, N-((6S,7S)-5-(1-cyanocyclobutane-1-carbonyl)-6-((2,5-difluoro-[1,1′-biphenyl]-3-yl)methyl)-5-azaspiro[2.4]heptan-7-yl)-1-fluoromethanesulfonamide]"
12,1 to 10,"O=C(NCC(F)F)N1CC2(CC2)[C@H](NS(=O)(=O)CF)[C@@H]1Cc1cccc(-c2cc(F)cc(F)c2)c1F [compound 15, (6S,7S)-N-(2,2-difluoroethyl)-7-((fluoromethyl)sulfonamido)-6-((2,3′,5′-trifluoro-[1,1′-biphenyl]-3-yl)methyl)-5-azaspiro[2.4]heptane-5-carboxamide]"
13,0.0631 to 1,"CC(C)S(=O)(=O)N[C@@H]1[C@H](Cc2cc(F)cc(-c3cc(F)cc(F)c3)c2F)N(C(=O)[C@H]2CCO2)CC12CC2 [compound 20, N-((6S,7S)-5-((R)-oxetane-2-carbonyl)-6-((2,3′,5,5′-tetrafluoro-[1,1′-biphenyl]-3-yl)methyl)-5-azaspiro[2.4]heptan-7-yl)propane-2-sulfonamide]"
14,0.0631 to 1,"C[C@@H](F)C(=O)N1CC2(CC2)[C@H](NS(=O)(=O)CF)[C@@H]1Cc1cc(F)cc(-c2cccc(F)c2)c1F [compound 21, 1-fluoro-N-((6S,7S)-5-((R)-2-fluoropropanoyl)-6-((2,3′,5-trifluoro-[1,1′-biphenyl]-3-yl)methyl)-5-azaspiro[2.4]heptan-7-yl)methanesulfonamide]"
15,1 to 10,"O=C([C@H](O)CF)N1CC2(CC2)[C@H](NS(=O)(=O)CF)[C@@H]1Cc1cccc(-c2cc(F)cc(F)c2)c1F [compound 23, 1-fluoro-N-((6S,7S)-5-((S)-3-fluoro-2-hydroxypropanoyl)-6-((2,3′,5′-trifluoro-[1,1′-biphenyl]-3-yl)methyl)-5-azaspiro[2.4]heptan-7-yl)methanesulfonamide]"
16,0.0631 to 1,"O=C(NCC(F)F)N1CC2(CC2)[C@H](NS(=O)(=O)C(F)F)[C@@H]1Cc1cc(F)cc(-c2cc(F)cc(F)c2)c1F [compound 25, (6S,7S)-N-(2,2-difluoroethyl)-7-((difluoromethyl)sulfonamido)-6-((2,3′,5,5′-tetrafluoro-[1,1′-biphenyl]-3-yl)methyl)-5-azaspiro[2.4]heptane-5-carboxamide]"
17,0.0631 to 1,"COCC1(C(=O)N2CC3(CC3)[C@H](NS(C)(=O)=O)[C@@H]2Cc2cccc(-c3ccccc3)c2F)CC1 [compound 26, N-((6S,7S)-6-((2-fluoro-[1,1′-biphenyl]-3-yl)methyl)-5-(1-(methoxymethyl)cyclopropane-1-carbonyl)-5-azaspiro[2.4]heptan-7-yl)methanesulfonamide]"
18,0.0631 to 1,"O=C([C@@H](O)C1CC1)N1CC2(CC2)[C@H](NS(=O)(=O)C(F)F)[C@@H]1Cc1cc(F)cc(-c2ccccc2)c1F [compound 27, N-((6S,7S)-5-((S)-2-cyclopropyl-2-hydroxyacetyl)-6-((2,5-difluoro-[1,1′-biphenyl]-3-yl)methyl)-5-azaspiro[2.4]heptan-7-yl)-1,1-difluoromethanesulfonamide]"
19,0.0631 to 1,"O=C(NCC(F)F)N1CC2(CC2)[C@H](NS(=O)(=O)C(F)F)[C@@H]1Cc1cccc(-c2cc(F)cc(F)c2)c1F [compound 28, (6S,7S)-N-(2,2-difluoroethyl)-7-((difluoromethyl)sulfonamido)-6-((2,3′,5′-trifluoro-[1,1′-biphenyl]-3-yl)methyl)-5-azaspiro[2.4]heptane-5-carboxamide]"
20,0.0631 to 1,"CC[C@@](C)(O)C(=O)N1CC2(CC2)[C@H](NS(=O)(=O)CF)[C@@H]1Cc1cccc(-c2cccc(F)c2)c1F [compound 30, N-((6S,7S)-6-((2,3′-difluoro-[1,1′-biphenyl]-3-yl)methyl)-5-((R)-2-hydroxy-2-methylbutanoyl)-5-azaspiro[2.4]heptan-7-yl)-1-fluoromethanesulfonamide]"
21,1 to 10,"C[C@@H](F)C(=O)N1CC2(CC2)[C@H](NS(=O)(=O)C(F)F)[C@@H]1Cc1cccc(-c2cc(F)cc(F)c2)c1F [compound 31, 1,1-difluoro-N-((6S,7S)-5-((R)-2-fluoropropanoyl)-6-((2,3′,5′-trifluoro-[1,1′-biphenyl]-3-yl)methyl)-5-azaspiro[2.4]heptan-7-yl)methanesulfonamide]"
22,1 to 10,"O=C([C@@H](O)C1CC1)N1CC2(CC2)[C@H](NS(=O)(=O)C(F)F)[C@@H]1Cc1cccc(-c2cc(F)cc(F)c2)c1F [compound 32, N-((6S,7S)-5-((S)-2-cyclopropyl-2-hydroxyacetyl)-6-((2,3′,5′-trifluoro-[1,1′-biphenyl]-3-yl)methyl)-5-azaspiro[2.4]heptan-7-yl)-1,1-difluoromethanesulfonamide]"
23,0.0631 to 1,"CC[C@](C)(O)C(=O)N1CC2(CC2)[C@H](NS(=O)(=O)CF)[C@@H]1Cc1cccc(-c2cccc(F)c2)c1F [compound 33, N-((6S,7S)-6-((2,3′-difluoro-[1,1′-biphenyl]-3-yl)methyl)-5-((S)-2-hydroxy-2-methylbutanoyl)-5-azaspiro[2.4]heptan-7-yl)-1-fluoromethanesulfonamide]"
24,0.0631 to 1,"N#CC1(C(=O)N2CC3(CC3)[C@H](NS(=O)(=O)CF)[C@@H]2Cc2cccc(-c3ccccc3)c2F)COC1 [compound 34, N-((6S,7S)-5-(3-cyanooxetane-3-carbonyl)-6-((2-fluoro-[1,1′-biphenyl]-3-yl)methyl)-5-azaspiro[2.4]heptan-7-yl)-1-fluoromethanesulfonamide]"
